The source made the active and inactive calls.
Legend:
Fatty acid synthase [1] = molecular target: T1, Fatty acid synthase (Homo sapiens, UniProt P49327); experiment: FAS thioesterase domain inhibitors, dose response, biochemical, endpoint fluorescence intensity, uHTS hits (AID 624327); type: functional;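 also: fluorescence from hydrolysis of an O-methyl fluorescein acyl ester substrate by the enzyme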
Fatty acid synthase [2] = molecular target: T1, Fatty acid synthase; experiment: FAS thioesterase domain inhibitors, dose response, biochemical, kinetic fluorescence intensity (AID 624326); type: functional;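 also: rate of fluorescence rise from hydrolysis of a fluorogenic O-methyl fluorescein ester substrate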
Cytochrome P450 2C19 = Cytochrome P450 2C19 (Homo sapiens, UniProt P33261); experiment: Cytochrome panel assay with activity outcomes. Panel member name: p450-cyp2c19 Compounds with AC50 equal or less than 10 uM are considered active; type: functional; settings: read-out: AC50
Cytochrome P450 2D6 = Cytochrome P450 2D6 (Homo sapiens, UniProt P10635);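 also: CYP2D6 member of a cytochrome P450 panel assay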
Cytochrome P450 1A2 = molecular target: T2, Cytochrome P450 1A2 (Homo sapiens, UniProt P05177);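 also: PubChem cytochrome P450 panel assay, CYP1A2 panel member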
T2 sequence (P05177 whole entry): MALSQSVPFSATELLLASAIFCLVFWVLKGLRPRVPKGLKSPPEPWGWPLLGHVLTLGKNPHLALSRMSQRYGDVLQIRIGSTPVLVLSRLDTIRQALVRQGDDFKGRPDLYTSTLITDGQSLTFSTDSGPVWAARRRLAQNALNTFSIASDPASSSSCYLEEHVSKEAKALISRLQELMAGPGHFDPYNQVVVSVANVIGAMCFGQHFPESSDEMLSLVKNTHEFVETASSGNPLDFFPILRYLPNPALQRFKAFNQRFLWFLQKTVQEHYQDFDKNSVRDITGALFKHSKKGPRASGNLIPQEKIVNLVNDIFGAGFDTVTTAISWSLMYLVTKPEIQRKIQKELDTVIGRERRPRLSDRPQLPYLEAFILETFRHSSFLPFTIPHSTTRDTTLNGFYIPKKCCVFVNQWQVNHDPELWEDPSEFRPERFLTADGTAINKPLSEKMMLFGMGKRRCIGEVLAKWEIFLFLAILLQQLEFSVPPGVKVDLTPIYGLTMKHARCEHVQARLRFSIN

Cytochrome P450 3A4 = Cytochrome P450 3A4 (Homo sapiens, UniProt P08684);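 also: CYP3A4 tested as one member of a cytochrome P450 panel screen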
Cytochrome P450 2C9 = Cytochrome P450 2C9 (Homo sapiens, UniProt P11712)
[3] = molecular target: T3, Replicative DNA helicase DnaB (Mycobacterium tuberculosis, UniProt P9WMR3); experiment: DnaB intein splicing inhibitors, dose response, biochemical, cell-free fluorescence (AID 449749); type: functional
T3 sequence (P9WMR3 whole entry): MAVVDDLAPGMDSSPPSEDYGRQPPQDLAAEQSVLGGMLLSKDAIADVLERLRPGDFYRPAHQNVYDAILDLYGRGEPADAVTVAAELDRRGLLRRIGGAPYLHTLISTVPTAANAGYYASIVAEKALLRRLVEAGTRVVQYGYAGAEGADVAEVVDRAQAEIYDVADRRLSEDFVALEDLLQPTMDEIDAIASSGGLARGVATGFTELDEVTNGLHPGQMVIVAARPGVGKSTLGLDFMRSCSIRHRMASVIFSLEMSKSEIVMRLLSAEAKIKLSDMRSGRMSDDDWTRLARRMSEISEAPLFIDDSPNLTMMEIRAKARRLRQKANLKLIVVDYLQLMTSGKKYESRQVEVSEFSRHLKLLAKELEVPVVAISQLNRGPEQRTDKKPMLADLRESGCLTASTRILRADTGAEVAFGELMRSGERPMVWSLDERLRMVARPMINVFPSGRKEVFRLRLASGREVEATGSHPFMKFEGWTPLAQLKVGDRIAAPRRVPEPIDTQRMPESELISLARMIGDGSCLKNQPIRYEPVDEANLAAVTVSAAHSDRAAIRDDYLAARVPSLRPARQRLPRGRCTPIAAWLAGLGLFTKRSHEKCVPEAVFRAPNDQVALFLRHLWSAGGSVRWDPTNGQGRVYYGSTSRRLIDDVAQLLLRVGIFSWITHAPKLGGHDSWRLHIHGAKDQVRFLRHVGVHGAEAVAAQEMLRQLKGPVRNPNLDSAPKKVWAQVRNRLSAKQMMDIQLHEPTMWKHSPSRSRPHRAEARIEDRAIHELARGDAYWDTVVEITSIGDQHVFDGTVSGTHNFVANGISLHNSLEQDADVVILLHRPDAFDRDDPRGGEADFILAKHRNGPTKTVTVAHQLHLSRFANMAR

Protein RecA = molecular target: T4, Protein RecA (Mycobacterium tuberculosis, UniProt P9WHJ3); experiment: Fluorescence Cell-Free Homogeneous Dose Retest to Identify Inhibitors of RecA-Intein Splicing Activity. [Related pubchem assays (depositor defined):AID2097, AID2223, AID489010, AID492950]; type: functional
T4 sequence (P9WHJ3 whole entry): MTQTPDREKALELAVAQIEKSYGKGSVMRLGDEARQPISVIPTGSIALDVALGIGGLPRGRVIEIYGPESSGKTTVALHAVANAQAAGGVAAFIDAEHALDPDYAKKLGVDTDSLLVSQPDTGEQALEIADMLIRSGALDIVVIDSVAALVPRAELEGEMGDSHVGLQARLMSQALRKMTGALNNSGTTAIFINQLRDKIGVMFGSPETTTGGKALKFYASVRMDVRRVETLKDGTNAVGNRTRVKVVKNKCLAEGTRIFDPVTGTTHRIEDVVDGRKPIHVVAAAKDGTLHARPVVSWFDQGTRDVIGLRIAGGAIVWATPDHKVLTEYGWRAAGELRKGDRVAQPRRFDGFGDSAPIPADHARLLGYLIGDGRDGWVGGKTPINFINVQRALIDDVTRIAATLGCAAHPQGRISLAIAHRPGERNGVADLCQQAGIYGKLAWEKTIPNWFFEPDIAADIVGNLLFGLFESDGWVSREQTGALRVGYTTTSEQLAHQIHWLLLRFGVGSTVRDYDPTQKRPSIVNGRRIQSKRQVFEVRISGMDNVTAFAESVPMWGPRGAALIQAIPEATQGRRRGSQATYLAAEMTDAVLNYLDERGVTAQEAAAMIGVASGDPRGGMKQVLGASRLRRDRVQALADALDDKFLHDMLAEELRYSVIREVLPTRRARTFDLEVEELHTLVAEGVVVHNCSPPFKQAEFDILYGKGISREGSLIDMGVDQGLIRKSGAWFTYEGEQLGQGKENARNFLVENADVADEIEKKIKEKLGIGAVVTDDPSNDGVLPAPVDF

[4] = molecular target: T5, Rac GTPase-activating protein 1 (Homo sapiens, UniProt Q9H0H5); experiment: MgcRacGAP GTPase-activating activity inhibitors, confirmation, biochemical, ADP Hunter fluorescence, primary and confirmatory (AID 624330); type: functional
T5 sequence (Q9H0H5 whole entry): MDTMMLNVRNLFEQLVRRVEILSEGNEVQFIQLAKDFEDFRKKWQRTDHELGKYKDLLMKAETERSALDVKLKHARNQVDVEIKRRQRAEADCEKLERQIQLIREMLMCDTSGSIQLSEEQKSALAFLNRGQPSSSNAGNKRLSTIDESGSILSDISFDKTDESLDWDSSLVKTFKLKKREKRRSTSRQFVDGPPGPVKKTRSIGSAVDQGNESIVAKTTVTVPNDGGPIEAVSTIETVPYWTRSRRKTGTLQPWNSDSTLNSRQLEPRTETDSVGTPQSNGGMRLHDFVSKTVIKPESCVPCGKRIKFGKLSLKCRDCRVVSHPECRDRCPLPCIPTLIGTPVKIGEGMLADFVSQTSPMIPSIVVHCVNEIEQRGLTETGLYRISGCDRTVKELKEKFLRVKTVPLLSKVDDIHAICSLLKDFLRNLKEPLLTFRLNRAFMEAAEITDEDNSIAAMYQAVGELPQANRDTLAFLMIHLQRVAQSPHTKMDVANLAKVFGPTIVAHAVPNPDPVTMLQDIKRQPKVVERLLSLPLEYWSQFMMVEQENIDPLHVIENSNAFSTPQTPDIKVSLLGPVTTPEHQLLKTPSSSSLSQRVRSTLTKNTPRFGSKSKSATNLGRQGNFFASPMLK

H9c2 = experiment: cells; type: functional, cell-based; settings: Rattus norvegicus, H9c2, Myocardium;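 also: confirmatory concentration-response retest of ultra-high-throughput screening hits for modulation of myocardial damage; cell death induced by hydrogen peroxide oxidative stress; compound pretreatment for 60 min then peroxide exposure for 2 h; potency is for protecting the cells against peroxide damage rather than for killing them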
[5] = inhibitors of intracellular T. cruzi replication, confirmation, NIH3T3 host cells, beta-gal luminescence (AID 2044); type: functional, cell-based;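 also: intracellular parasites grown in NIH/3T3 mouse fibroblasts as host cells; luminescent beta-galactosidase reporter signal from transgenic T. cruzi replicating inside host cells; inhibitors lower the luminescence signal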
[6] = cytotoxicity toward NIH3T3 fibroblasts, dose response, counter-screen, cell-based, ATP luminescence, mouse fibroblasts (AID 2010); type: functional;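 also: cells exposed to compound for about 90 hours before reading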

Chain of Cytochrome P450 2C19 (P33261 whole entry): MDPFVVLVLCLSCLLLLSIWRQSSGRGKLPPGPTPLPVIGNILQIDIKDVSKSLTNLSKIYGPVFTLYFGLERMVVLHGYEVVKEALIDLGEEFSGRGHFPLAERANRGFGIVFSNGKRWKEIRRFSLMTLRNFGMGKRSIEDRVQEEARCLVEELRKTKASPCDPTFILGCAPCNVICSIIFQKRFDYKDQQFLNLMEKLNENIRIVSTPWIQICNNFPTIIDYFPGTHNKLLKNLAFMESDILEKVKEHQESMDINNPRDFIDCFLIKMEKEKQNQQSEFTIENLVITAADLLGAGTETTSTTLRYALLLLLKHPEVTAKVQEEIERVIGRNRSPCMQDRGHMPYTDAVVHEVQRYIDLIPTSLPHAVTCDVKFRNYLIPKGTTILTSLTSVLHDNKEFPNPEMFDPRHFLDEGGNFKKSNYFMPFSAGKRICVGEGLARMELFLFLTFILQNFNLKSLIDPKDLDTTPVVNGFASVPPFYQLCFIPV
Chain of Cytochrome P450 2C9 (P11712 whole entry): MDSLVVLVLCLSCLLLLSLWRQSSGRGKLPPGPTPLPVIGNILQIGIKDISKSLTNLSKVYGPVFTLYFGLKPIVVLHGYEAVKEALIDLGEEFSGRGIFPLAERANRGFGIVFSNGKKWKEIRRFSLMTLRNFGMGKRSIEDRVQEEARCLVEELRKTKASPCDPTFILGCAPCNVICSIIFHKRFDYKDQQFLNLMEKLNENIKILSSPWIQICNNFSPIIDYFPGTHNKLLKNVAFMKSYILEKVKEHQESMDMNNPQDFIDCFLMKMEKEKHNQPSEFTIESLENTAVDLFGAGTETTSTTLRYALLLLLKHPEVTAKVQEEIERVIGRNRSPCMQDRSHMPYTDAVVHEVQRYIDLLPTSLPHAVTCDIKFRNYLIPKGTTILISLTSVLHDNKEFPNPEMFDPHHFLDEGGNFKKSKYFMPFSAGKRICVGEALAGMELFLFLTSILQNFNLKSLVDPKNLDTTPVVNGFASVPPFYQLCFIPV
T1 sequence (P49327 whole entry, the tested form may be a part): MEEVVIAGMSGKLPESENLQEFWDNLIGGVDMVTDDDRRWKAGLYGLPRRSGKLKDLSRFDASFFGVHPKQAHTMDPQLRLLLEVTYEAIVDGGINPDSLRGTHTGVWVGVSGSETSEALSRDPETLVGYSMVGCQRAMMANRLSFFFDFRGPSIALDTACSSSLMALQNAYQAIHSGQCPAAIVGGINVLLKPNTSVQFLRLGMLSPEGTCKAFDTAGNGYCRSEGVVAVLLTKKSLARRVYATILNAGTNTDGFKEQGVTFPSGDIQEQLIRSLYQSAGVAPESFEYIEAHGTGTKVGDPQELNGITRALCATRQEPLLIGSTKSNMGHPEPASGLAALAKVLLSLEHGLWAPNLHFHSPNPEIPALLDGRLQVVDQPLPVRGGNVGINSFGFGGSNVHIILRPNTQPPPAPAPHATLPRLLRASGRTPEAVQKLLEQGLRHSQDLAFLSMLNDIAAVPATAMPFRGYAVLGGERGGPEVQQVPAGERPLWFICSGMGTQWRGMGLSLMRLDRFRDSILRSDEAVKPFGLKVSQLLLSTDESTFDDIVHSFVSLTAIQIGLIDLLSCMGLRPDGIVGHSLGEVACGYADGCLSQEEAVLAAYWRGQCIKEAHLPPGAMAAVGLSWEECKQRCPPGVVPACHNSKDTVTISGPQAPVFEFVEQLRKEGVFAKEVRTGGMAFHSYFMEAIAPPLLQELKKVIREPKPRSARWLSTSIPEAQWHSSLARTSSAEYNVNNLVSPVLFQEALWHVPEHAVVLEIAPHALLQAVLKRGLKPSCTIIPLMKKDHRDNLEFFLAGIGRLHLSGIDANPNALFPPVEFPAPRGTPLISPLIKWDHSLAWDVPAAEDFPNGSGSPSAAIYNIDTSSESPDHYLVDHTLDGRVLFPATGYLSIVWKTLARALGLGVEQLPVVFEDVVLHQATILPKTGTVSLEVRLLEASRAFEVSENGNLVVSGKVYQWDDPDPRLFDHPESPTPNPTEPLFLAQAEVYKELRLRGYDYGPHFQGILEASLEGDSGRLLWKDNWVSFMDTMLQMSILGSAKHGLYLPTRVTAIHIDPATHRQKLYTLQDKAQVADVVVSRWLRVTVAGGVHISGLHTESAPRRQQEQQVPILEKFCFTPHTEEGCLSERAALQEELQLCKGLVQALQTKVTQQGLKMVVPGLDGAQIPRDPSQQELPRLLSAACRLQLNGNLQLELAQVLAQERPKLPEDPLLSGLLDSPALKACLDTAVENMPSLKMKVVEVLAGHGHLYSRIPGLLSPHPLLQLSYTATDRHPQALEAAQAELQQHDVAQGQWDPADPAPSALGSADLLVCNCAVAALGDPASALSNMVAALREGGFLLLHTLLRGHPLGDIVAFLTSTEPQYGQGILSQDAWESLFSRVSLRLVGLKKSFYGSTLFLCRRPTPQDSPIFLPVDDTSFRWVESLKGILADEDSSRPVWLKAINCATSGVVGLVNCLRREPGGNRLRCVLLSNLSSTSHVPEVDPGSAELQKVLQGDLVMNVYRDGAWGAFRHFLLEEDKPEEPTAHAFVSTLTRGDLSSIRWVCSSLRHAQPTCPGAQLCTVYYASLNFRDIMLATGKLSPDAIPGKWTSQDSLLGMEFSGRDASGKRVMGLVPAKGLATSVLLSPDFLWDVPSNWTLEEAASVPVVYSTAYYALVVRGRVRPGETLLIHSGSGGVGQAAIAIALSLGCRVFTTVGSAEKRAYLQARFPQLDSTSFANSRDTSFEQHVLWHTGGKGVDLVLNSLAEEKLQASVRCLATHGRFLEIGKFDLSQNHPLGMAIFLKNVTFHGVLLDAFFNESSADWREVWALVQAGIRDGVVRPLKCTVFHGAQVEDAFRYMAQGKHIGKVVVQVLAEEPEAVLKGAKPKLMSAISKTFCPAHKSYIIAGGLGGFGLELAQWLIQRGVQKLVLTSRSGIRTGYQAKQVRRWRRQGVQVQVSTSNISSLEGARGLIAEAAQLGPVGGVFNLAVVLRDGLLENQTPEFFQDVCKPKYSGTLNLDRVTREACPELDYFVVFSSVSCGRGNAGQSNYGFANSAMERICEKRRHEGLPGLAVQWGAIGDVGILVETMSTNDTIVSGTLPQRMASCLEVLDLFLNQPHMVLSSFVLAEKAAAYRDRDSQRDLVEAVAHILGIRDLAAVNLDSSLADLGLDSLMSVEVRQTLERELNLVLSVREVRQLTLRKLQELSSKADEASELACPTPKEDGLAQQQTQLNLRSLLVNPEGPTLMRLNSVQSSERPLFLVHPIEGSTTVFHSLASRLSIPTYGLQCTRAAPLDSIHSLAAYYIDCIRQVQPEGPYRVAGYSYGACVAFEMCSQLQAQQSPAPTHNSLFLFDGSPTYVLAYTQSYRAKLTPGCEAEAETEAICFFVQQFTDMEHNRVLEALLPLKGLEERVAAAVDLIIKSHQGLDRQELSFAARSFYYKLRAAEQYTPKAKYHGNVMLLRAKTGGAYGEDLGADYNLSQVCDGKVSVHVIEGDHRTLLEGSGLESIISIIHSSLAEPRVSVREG
Chain of Cytochrome P450 2D6 (P10635 whole entry): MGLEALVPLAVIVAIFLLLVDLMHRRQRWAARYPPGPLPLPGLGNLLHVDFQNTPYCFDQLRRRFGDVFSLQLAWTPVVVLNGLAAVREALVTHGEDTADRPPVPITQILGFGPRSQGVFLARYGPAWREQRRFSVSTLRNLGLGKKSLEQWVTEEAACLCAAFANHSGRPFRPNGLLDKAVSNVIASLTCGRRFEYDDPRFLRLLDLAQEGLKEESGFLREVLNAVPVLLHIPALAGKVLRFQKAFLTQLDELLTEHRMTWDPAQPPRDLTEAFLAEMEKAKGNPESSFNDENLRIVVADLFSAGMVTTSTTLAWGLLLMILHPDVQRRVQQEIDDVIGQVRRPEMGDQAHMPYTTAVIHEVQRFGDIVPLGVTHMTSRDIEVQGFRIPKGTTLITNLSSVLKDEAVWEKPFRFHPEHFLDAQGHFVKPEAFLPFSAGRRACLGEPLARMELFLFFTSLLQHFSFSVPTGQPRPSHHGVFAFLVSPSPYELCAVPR
Chain of Cytochrome P450 3A4 (P08684 whole entry): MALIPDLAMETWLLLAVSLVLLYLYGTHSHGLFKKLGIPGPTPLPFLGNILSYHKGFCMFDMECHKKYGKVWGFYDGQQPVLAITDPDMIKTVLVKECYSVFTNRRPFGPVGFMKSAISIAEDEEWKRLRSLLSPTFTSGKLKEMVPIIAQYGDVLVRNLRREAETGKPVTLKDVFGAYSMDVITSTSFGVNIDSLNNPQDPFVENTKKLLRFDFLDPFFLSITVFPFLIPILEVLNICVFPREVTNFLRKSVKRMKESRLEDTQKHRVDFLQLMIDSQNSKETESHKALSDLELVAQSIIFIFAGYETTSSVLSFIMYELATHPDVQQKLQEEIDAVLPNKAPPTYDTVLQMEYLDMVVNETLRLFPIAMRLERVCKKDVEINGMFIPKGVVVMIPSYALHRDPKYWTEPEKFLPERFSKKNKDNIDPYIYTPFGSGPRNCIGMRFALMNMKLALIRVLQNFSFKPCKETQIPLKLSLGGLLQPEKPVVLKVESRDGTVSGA

CC(C)(C)OC(=O)NCc1ccc(CNC(=O)c2[nH]cnc2C(=O)NCC(=O)OCc2ccccc2)cc1
IC50 (Fatty acid synthase [1]): 6.98 µM (active) | IC50 (Fatty acid synthase [2]): 4.49 µM (active)

O=C(Oc1ccccc1)N1CCC[C@@]2(CCN(Cc3ccccc3)C2)C1
AC50 (Cytochrome P450 2C19): 20 µM (inconclusive) | AC50 (Cytochrome P450 2D6): 20 µM (inconclusive) | AC50 (Cytochrome P450 1A2): 15.8 µM (inconclusive) | AC50 (Cytochrome P450 3A4): 15.8 µM (inconclusive) | AC50 (Cytochrome P450 2C9): 20 µM (inconclusive)

C[C@@H]1[C@H]2C=C[C@@H]1[C@@H](c1c3ccc(=O)c(O)c-3oc3c(O)c(O)ccc13)[C@@H]2C(=O)O
AC50 (Cytochrome P450 2C19): 3.98 µM (inconclusive) | AC50 (Cytochrome P450 2C9): 7.94 µM (inconclusive)

C[C@@H]1Oc2ccc(C(=O)C[C@@H](C(=O)O)c3ccc4c(c3)OCO4)cc2O1
AC50 (Cytochrome P450 2C19): 5.01 µM (inconclusive) | AC50 (Cytochrome P450 1A2): 0.794 µM (inconclusive) | AC50 (Cytochrome P450 2C9): 6.31 µM (inconclusive)

Nc1nn2c(-c3ccccc3)cc(O)nc2c1N=Nc1ccc(O)cc1
AC50 [3]: 3.91 µM (active) | EC50 (Protein RecA): 1.88 µM (active) | IC50 [4]: 60.1 µM (active)

Cc1cccc(NC(=O)c2cc([N+](=O)[O-])ccc2N2CCN(C)CC2)c1
IC50 (Fatty acid synthase [1]): 8.93 µM (active) | IC50 (Fatty acid synthase [2]): 11.3 µM (active)

C[C@@H](NC(=O)c1[nH]cnc1C(=O)NCC(=O)OCc1ccccc1)c1ccccc1
IC50 (H9c2): > 79 µM (inactive)

COc1ccccc1NC(=O)c1ccccc1S(=O)(=O)c1ccc([N+](=O)[O-])cc1
IC50 (Fatty acid synthase [1]): 14.9 µM (active) | IC50 (Fatty acid synthase [2]): 8.19 µM (active)

CC(C)n1nnnc1SCC(=O)NCc1ccc2c(c1)OCO2
AC50 (Cytochrome P450 2D6): 25.1 µM (inconclusive) | AC50 (Cytochrome P450 1A2): 12.6 µM (inconclusive) | AC50 (Cytochrome P450 2C9): 25.1 µM (inconclusive)

O=C(NCCCc1ccccc1)c1ccc([N+](=O)[O-])cc1Cl
IC50 (Fatty acid synthase [1]): 1.25 µM (active) | IC50 (Fatty acid synthase [2]): 1.31 µM (active)

CCN1CCN(CCCOc2ccc(Cl)cc2Br)CC1
EC50 [5]: 1.6 µM (active) | EC50 [6]: 32.5 µM (active) | IC50 [4]: 68.8 µM (active)

Cc1ccc(C)c(CN2C(=O)C3CCCN3c3ccc(S(=O)(=O)N4CCOCC4)cc32)c1 (stereo not drawn)
AC50 (Cytochrome P450 2C19): 6.31 µM (inconclusive) | AC50 (Cytochrome P450 2C9): 14.1 µM (inconclusive)

Cc1c(Br)c([N+](=O)[O-])nn1CC(=O)Nc1ccc(C(C)C)cc1
IC50 (Fatty acid synthase [1]): 3.18 µM (active) | IC50 (Fatty acid synthase [2]): 6.92 µM (active)

CN1CCN(c2ncc3nc(CCc4ccccc4)c(=O)n(Cc4ccc(F)cc4)c3n2)CC1
AC50 (Cytochrome P450 2C9): 12.6 µM (inconclusive)

Reference: ChEMBL document CHEMBL1201862, “PubChem BioAssay data set” (2004)
